Assay: Stability in vesicles by UV-Vis
Assay type: physicochemical
Conditions: POPC lipid solution, 2 hours
Experimental: The spectra obtained over the course of 72 hours for 1d, 2 and 4-8 show similar trends, 3 was not tested because it was unavailable. All spectra show a decrease in the peak at around 400 nm after 6 hours and an increase in the peak at around 300 nm after 72 hours. These changes in spectra […]
72 hours. The absorbance for 6 decreases dramatically for the readings after 6 hours because most […]
S7.2 Stability in Vesicles
Stability studies were performed for the perenosins in vesicles using UV-Vis spectroscopy to probe the lifetime of compounds 1d and 2-8 at pH 7.2 and pH 4.6. Unilamellar vesicles were prepared using previously reported literature procedures7-9. A lipid film of POPC (1-palmitoyl-2-oleoyl-sn-glycero-3-phosphocholine) was prepared from a chloroform solution under reduced pressure and then dried under vacuum for 4 or more hours. The lipid film was rehydrated by vortexing with a solution of phosphate buffered (5 mM) sodium chloride (500 mM). The lipid suspension was then subjected to 9 freeze-thaw cycles and left to rest at room temperature for 30 minutes. After this, the suspension was extruded 25 times through a 400 nm polycarbonate membrane resulting in unilamellar vesicles of a mean diameter of 400 nm. […]
Figure S65. Absorbance spectra taken over 2 hours of 1d (25 mM) in a sodium chloride (500 mM) phosphate buffered (5 mM) lipid solution. a) pH 7.2 b) pH 4.6 […]

SMILES: CCCCCc1cc(/N=C/c2[nH]c(C)cc2C)c2[nH]ccc2c1 [Perenosin 1d]
- stability in vesicles at pH 7.2: stable
